The values that follow come from patent publication US20220033623A1, “CONJUGATES OF HYALURONIC ACID AND AMINOBISPHOSPHONATES AND THE THERAPEUTIC USE THEREOF” (FIDIA FARMACEUTICI S.P.A., priority 2018, published 2022).

Read-outs that look alike come from different tables or passages of the source.

Series [1] has as its system primary bovine chondrocytes. Particulars: for cytotoxic effect: 7 days.
Description: The ability of the conjugate to release alendronate in a controlled way and also to have an effect on cartilage tissue was evaluated by in vitro testing on primary bovine chondrocytes.
(§1) 1) a control group, wherein the cells were neither treated nor stimulated;
(§2) Each sample was tested in four replications.
For the next series, the system named is Saos-2 osteoblasts. The following applies: for cell viability: 3 days of incubation, % of that of the control, FIG. 4A.
The nature of series [2]: Rheological properties: viscoelastic moduli (frequency sweep) after adding CaCl2. It is filed as physicochemical. The following applies: 20 mg/mL in 0.1 M TRIS pH 7, alendronate 2.4 mg/mL, CaCl2 2 mg/mL, 20° C, 0.1-100 rad/s; FIG. 2.

As usually defined, the cell viability is a read-out of living cells in per cent, often relative to untreated cells.

Description for Saos-2 osteoblasts: The cells were then seeded at the concentration of 1×10^4 cells/well in 96-well Multiwell plates (Sarstedt, cat. no. 83,3924, Germany) and divided into three groups:
as §1, §2

For `NCCCC(O)(P(=O)(O)O)P(=O)(O)O` [alendronate], in series [1], the “onset of the effect on the cells” value was “acts on the primary bovine chondrocytes after only 72 hours of incubation”. In addition, the cytotoxic effect entry in series [1] (50 μM) and in series [1] (100 μM) was “maximum cytotoxic effect” each time. Further, the cell viability is recorded as less than 70% in the series on Saos-2 osteoblasts (Saos-2, 50 μM) and less than 70% with Saos-2 osteoblasts (Saos-2, 100 μM). For the same molecule, the “cytotoxicity as a function of incubation period” value in the series on Saos-2 osteoblasts (Saos-2, 3 versus 7 days) is “increases significantly in proportion to the incubation period”. Also, the “viscoelastic moduli G′ (elastic) and G″ (viscous), comparison in words” value in series [2] is recorded as “no effect on rheological behaviour”.
